# Experimental data: patent publication US12458616B2, “Levodopa dosing regimen” (Amneal Pharmaceuticals, LLC, priority 2020, dated 2025)
# Where two headings read alike, the source gives them in different places.
# Experiments:
# [1] = Example 12 pharmacokinetics in healthy subjects: fed, sprinkled on applesauce, fasted; type: in vivo, human; conditions: Example 7 capsule 350 mg LD/87.5 mg CD; for Tmax: median (min-max); for AUC(0-t): hour 0 to 24 hours; for Cmax: po, single oral dose
# Method: The dosage forms described in Example 7 were administered to 27 healthy male and female subjects between the ages of 18 and 55 with a body weight of at least 55 kg and body mass index of 18.5 to 30.0 kg/m^2 in a single site, open label, single dose, 3-treatment, 3-period, crossover study. The subjects were fasted overnight for at least 10 hours and received a single dose of 350 mg LD and 87.5 CD for each treatment separated by a 6 to 7 day washout period.
# No additional food was allowed for at least 4 hours post dose.
# Treatment B comprised the oral administration of one capsule prepared in accordance with Example 7 containing 350 mg LD and 87.5 mg CD wherein the contents of the capsule were sprinkled onto 1 tablespoon of applesauce. No additional food was allowed for at least 4 hours post dose.
# Treatment C comprised the oral administration of one capsule prepared in accordance with Example 7 containing 350 mg LD and 87.5 mg CD with 240 mL of water. No food was allowed for at least 4 hours post dose.
# For Treatments A and C the subjects were instructed to swallow the capsule intact and not to chew, divide or crush the tablet.
# For Treatment B, the subjects were instructed to consume all the applesauce without crushing or chewing the beads.
# Whole blood samples were taken prior to dosing and at 0.5, 1, 1.5, 2, 2.5, 3, 4, 5, 6, 7, 8, 10, 12, 16 and 24 hours post dose. The plasma samples were analyzed for concentrations of CD and LD by a validated liquid chromatography-tandem mass spectrometry (LC-MS/MS) method. Peak plasma (Cmax), area under the plasma concentration-time curve (AUCt and AUC∞), and time to maximum concentration (Tmax) for LD and CD were evaluated. The mean pharmacokinetic parameters are showing in the following table and in FIGS. 20 and 21.
# [2] = cited from earlier work
# [3] = both sexes, human, plasma, oral, Fasted, mean ± SD
# [4] = both sexes, human, plasma, oral, Fasted, read-out: Tmax
# [5] = both sexes, human, plasma, oral, Fed, mean ± SD
# [6] = both sexes, human, plasma, oral, Fed, read-out: Tmax
# [7] = both sexes, human, plasma, oral, Sprinkled on Applesauce, mean ± SD
# [8] = both sexes, human, plasma, Fasted, mean ± SD
# [9] = both sexes, human, plasma, Fed (high-fat breakfast), mean ± SD
# [10] = both sexes, human, plasma, Sprinkled on Applesauce, mean ± SD
SMILES,"half-life [1, 3] [h]","Tmax [1, 4] [h]","AUC(0-t) [1, 3] [ng·h/mL]","half-life [1, 5] [h]","Tmax [1, 6] [h]","AUC(0-t) [1, 5] [ng·h/mL]","half-life [1, 7] [h]","Tmax ([1]; both sexes, human, plasma, oral, Sprinkled on Applesauce, read-out: Tmax) [h]","AUC(0-t) [1, 7] [ng·h/mL]","Cmax [1, 8] [ng/mL]","Cmax [1, 9] [ng/mL]","Cmax [1, 10] [ng/mL]",plasma half-life ([2]; orally administered with CD),plasma half-life ([2]; orally administered without CD),"T1/2 ([1]; Fed, mean ± SD) [h]",Tmax ([1]; Sprinkled on Applesauce)
C[C@@](Cc1ccc(O)c(O)c1)(NN)C(=O)O [Carbidopa],3.9 ± 0.56,3,2180 ± 906,3.86 ± 0.78,4,751 ± 205,3.95 ± 0.67,2.5,1910 ± 618,404 ± 157,141 ± 41.1,339 ± 91.8,–,–,–,–
"N[C@@H](Cc1ccc(O)c(O)c1)C(=O)O [LD, levodopa]",2 ± 0.3,2,9120 ± 2150,–,4,10600 ± 1430,2.02 ± 0.31,–,8330 ± 1960,1830 ± 385,2190 ± 473,1630 ± 409,about 1.5 hours,about 50 minutes,1.79 ± 0.3,0.5 (0.5-5.0) h
